Like-named read-outs stand apart in the source and are kept apart here.
Assays:
[1] = molecular target: ENPP1 on MDA-MB-231 cells (Homo sapiens (Human), UniProt P22413); assay: Assay 3: inhibition of ENPP1 hydrolysis of AMP p-nitrophenyl ester on MDA-MB-231 cells
ENPP-1 ECD = ENPP-1 ECD (Homo sapiens (Human), UniProt P22413); assay: Assay 2: inhibition of ENPP1 hydrolysis of 2′,3′-cGAMP (AMP-Glo, […] enzyme)
Procedure: Assay 2: Compared to the conditions in Assay 1, this assay has a larger dynamic range and ensures the system is under steady-state conditions by reducing the enzyme concentration in the assay.
Test compounds were plated in a 3× dilution scheme in a 384 well plate. […] AMP Detection solution (10 μL) was added to each well, the plate centrifuged and incubated for 60 min.

[2] = Assay 2 (KI), inhibition of ENPP1 hydrolysis of 2′,3′-cGAMP, no unit in Table 18 (Table 17 legend for this assay uses nM)
[3] = read-out: Assay 3 (KI, app), apparent KI from IC50 via Cheng/Prusoff, pNP-AMP […], MDA-MB-231 cells, pH 7.4, 37° C., 3 h, unit inferred
[4] = read-out: Assay 2 (KI), inhibition of ENPP1 hydrolysis of 2′,3′-cGAMP, no unit in Table 18 (Table 17 legend for this assay uses nM)
[5] = Assay 2 (KI), ENPP1 hydrolysis of 2′,3′-cGAMP, AMP-Glo, […] ENPP-1, 24 μM cGAMP

Sequence of ENPP-1 ECD (P22413 98-925): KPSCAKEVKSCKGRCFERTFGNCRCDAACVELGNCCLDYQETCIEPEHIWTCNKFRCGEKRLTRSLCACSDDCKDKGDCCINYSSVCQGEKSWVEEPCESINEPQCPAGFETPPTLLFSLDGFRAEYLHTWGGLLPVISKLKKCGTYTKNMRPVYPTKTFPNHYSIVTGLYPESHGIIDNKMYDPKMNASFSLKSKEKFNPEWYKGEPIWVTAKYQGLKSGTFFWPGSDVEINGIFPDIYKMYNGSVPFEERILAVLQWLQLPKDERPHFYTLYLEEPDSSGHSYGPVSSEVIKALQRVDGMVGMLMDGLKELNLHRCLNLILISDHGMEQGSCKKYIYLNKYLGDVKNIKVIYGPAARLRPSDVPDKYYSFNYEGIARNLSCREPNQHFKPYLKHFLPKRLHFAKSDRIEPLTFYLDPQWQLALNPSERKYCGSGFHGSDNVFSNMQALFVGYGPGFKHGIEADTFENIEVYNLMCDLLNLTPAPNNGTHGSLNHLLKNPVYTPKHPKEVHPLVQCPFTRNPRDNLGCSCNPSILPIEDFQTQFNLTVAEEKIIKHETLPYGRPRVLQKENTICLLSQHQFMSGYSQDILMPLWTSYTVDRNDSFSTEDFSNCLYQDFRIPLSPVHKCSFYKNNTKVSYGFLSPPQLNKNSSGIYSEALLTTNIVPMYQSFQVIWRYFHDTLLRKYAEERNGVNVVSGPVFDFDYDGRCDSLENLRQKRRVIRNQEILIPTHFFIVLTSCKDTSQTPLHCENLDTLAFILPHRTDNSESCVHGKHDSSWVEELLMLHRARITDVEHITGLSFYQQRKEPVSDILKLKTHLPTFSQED
Sequence of ENPP1 on MDA-MB-231 cells (P22413 whole entry, the tested form may be a part): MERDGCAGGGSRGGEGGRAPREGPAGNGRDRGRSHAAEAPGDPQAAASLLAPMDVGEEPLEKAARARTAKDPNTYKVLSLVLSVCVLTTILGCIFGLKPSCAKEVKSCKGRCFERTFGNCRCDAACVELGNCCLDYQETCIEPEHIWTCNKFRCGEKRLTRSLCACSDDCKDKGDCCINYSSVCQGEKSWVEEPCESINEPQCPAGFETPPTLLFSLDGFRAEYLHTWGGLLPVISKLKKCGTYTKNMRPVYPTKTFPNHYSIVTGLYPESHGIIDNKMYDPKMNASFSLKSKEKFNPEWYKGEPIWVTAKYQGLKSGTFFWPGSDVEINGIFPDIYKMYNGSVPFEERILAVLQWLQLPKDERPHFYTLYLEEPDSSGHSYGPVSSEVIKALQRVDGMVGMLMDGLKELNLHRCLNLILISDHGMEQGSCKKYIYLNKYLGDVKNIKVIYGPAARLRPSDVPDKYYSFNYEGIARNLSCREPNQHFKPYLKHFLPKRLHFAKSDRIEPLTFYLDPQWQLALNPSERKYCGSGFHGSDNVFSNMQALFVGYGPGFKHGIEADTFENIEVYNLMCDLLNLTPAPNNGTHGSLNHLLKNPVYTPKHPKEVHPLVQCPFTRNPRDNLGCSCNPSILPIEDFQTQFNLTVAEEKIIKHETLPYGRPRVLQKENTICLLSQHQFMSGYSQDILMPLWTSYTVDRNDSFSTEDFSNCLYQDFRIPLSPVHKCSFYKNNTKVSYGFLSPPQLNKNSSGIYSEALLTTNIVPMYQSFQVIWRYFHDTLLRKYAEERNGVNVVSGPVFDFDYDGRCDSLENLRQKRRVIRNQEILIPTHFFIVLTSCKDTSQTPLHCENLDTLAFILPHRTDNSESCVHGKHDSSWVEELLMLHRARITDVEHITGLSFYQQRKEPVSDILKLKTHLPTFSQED

Compound | Ki [1] [nM] | Ki (ENPP-1 ECD; [2]) [nM] | Ki [1, 3] [nM] | Ki (ENPP-1 ECD; [4]) [nM] | Ki (ENPP-1 ECD; read-out: Assay 2 (KI), ENPP1 hydrolysis of 2′,3′-cGAMP, AMP-Glo, […] ENPP-1, 24 μM cGAMP) [nM] | Ki (ENPP-1 ECD; [5]) [nM]
CCOc1cccc2c(N3CCC(CS(C)(=N)=O)CC3)c(C#N)cnc12 (centres unmarked) [Compound 197, 8-ethoxy-4-(4-{[imino(methyl)oxo-λ^6-sulfanyl]methyl}piperidin-1-yl)quinoline-3-carbonitrile] | 2.3 | 0.04 |  |  |  | 
COc1cccc2c(N3CCC(O)(C[S@@](C)(=N)=O)CC3)ncnc12 [Compound 185a] |  |  | 0.32 | 0.013 |  | 
COc1cccc2c(N3CCC(O)(CS(C)(=N)=O)CC3)ncnc12 (centres unmarked) [Compound 185, {[4-hydroxy-1-(8-methoxyquinazolin-4-yl)piperidin-4-yl]methyl}(imino)methyl-λ^6-sulfanone] | 0.45 | 0.028 |  |  |  | 
COc1cc2nccc(N3CC4(CC(C[S@@](C)(=N)=O)C4)C3)c2cc1F [Compound 184a] |  |  | 1.7 | 0.1 |  | 
COc1cc2ncnc(N3CC4(CC(CS(C)(=N)=O)C4)C3)c2cc1OC (centres unmarked) [Compound 237] | 1.2 | 0.028 |  |  |  | 
COc1cc2ncnc(N3CCC(CN[S@@](C)(=N)=O)CC3)c2cc1OC [Compound 94a] |  |  | 46 | 0.78 | < 3 | 
COc1ccc2c(Oc3ccc(S(=N)(=O)CC4CC4)cc3)ccnc2c1 (centres unmarked) [Compound 123, (cyclopropylmethyl)(imino){4-[(7-methoxyquinolin-4-yl)oxy]phenyl}-λ^6-sulfanone] | 60 | 1.5 |  |  |  | < 3
COc1ccc2c(Oc3ccc(S(C)(=N)=O)cc3)cc(C)nc2c1 (centres unmarked) [Compound 124, imino({4-[(7-methoxy-2-methylquinolin-4-yl)oxy]phenyl})methyl-λ^6-sulfanone] | 30 | 0.73 |  |  |  | < 3

The remaining lines, values ahead:

Ki [1] [nM] | Ki (ENPP-1 ECD; [2]) [nM] | Ki [1, 3] [nM] | Ki (ENPP-1 ECD; [4]) [nM] | Ki (ENPP-1 ECD; read-out: Assay 2 (KI), ENPP1 hydrolysis of 2′,3′-cGAMP, AMP-Glo, […] ENPP-1, 24 μM cGAMP) [nM] | Ki (ENPP-1 ECD; [5]) [nM] | Compound
 |  | 5.4 | 0.43 |  |  | COc1cccc2c(N3CC[C@@H](C[S@](C)(=N)=O)C3)ncnc12 [Compound 239a]
 |  | > 190 | 15 |  |  | COc1cc2nccc(OCc3cccc([S@@](C)(=N)=O)c3)c2cc1F [Compound 169a]
0.97 | 0.022 |  |  |  |  | COc1cc2nncc(N3CCC4(CC3)CCN(S(C)(=N)=O)C4)c2cc1OC (centres unmarked) [Compound 211, [8-(6,7-dimethoxycinnolin-4-yl)-2,8-diazaspiro[4.5]decan-2-yl](imino)methyl-λ^6-sulfanone]
5.7 | 0.23 |  |  |  |  | COc1ccc2c(O[C@@H](C)c3cccc(S(C)(=N)=O)c3)ccnc2c1 (stereo partly drawn) [Compound 245, imino({3-[(1S)-1-[(7-methoxyquinolin-4-yl)oxy]ethyl]phenyl})methyl-λ^6-sulfanone]
 |  | 3.1 | 0.047 |  |  | COc1cccc2c(N3CCC4(C3)CN([S@](C)(=N)=O)C4)ncnc12 [Compound 223a]
9.2 | 0.17 |  |  |  |  | COc1cc2ncnc(OCc3cccc(S(C)(=N)=O)c3)c2cc1OC (centres unmarked) [Compound 173, (3-{[(6,7-dimethoxyquinazolin-4-yl)oxy]methyl}phenyl)(imino)methyl-λ^6-sulfanone]
17 | 0.38 |  |  |  |  | COc1cc2nccc(N3CC4(CC(CS(C)(=N)=O)C4)C3)c2cc1OC (centres unmarked) [Compound 186, {[2-(6,7-dimethoxyquinolin-4-yl)-2-azaspiro[3.3]heptan-6-yl]methyl}(imino)methyl-λ^6-sulfanone]
 |  | 260 | 66 |  |  | COc1cccc2c(N3CC[C@H](C[S@@](C)(=N)=O)C3)ncnc12 [Compound 238a]
 |  | 2.2 | 0.023 |  |  | COc1cc2nncc(N3CCC4(CC3)CCN([S@](C)(=N)=O)C4)c2cc1OC [Compound 211a]
1.2 | 0.031 |  |  |  |  | COc1cc2ncnc(N3CCC4(CC3)CCN(S(C)(=N)=O)C4)c2cc1OCF (centres unmarked) [Compound 241, {8-[6-(fluoromethoxy)-7-methoxyquinazolin-4-yl]-2,8-diazaspiro[4.5]decan-2-yl}(imino)methyl-λ^6-sulfanone]
 |  | 240 | 5.2 |  |  | COc1ccc2c(OCc3cccc(S(C)(=N)=O)c3)ncnc2c1 (centres unmarked) [Compound 174, imino(3-{[(7-methoxyquinazolin-4-yl)oxy]methyl}phenyl)methyl-λ^6-sulfanone]

Source: patent publication US11780849B2, “Imino sulfanone inhibitors of ENPP1” (Volastra Therapeutics, Inc., priority 2020, dated 2023)
